For test [1] the following is noted: in vivo; cited from earlier work.
For test [2], the system named is Gram negative and Gram-positive bacteria. The following applies: series of Gram negative and Gram-positive bacteria; cited from earlier work.
Another test deals with Candida albicans. The settings on record: against Candida albicans; cited from earlier work.
For a further test, the system named is Heliothis virescens. The settings on record: against Heliothis virescens; cited from earlier work.
A further test deals with wild-type RXR (GBD:RXR) (Homo sapiens, UniProt P19793). As to the kind of experiment: cell-based. From the text: (§1) Liquid Media: The method used for quantitation was modified from a method developed by Miller and known in the art.
(§2) The twelve plasmids rescued from the selective plates were retransformed into PJ69-4A to confirm that their phenotype is plasmid linked. The strain PJ69-4A was engineered to contain a Gal4 response element controlling expression of the LacZ gene, in addition to the ADE2 gene. […] The selection assay quantifies yeast growth occurring through transcriptional activation of the ADE2 gene, while the screen quantifies β-galactosidase activity occurring though transcriptional activation of the LacZ gene.
Three plasmids were used as controls in the screen and selection assays. […] This plasmid provides a measure of background noise in both the selection and screen assays.

Test [3] addresses T1, RXR variant I268A; A272V; I310A; F313A; L436F (Homo sapiens, UniProt P19793, A272V/F313A/I268A/I310A/L436F).
T1 construct: expressed in transfected cells; host or cells: HEK 293
As to the kind of experiment: Mammalian luciferase assay in HEK 293 cells. It is filed as cell-based. The text has this: (§3) RLU=relative light units.
(§4) Mammalian Luciferase Assay: Performed with HEK 293 cells as previously described, and known in the art.

Test [4] deals with T2, RXR variant I268L; A271V; I310L; F313L (Homo sapiens, UniProt P19793, A271V/F313L/I268L/I310L).
T2 construct: expressed in transfected cells; host or cells: HEK 293
As to the kind of experiment: Mammalian luciferase assay in HEK 293 cells. Type of test: cell-based.
Source text: as §3, §4

Test [5] has as its target T3, RXR variant I268A; I310S; F313V; L436F (Homo sapiens, UniProt P19793, F313V/I268A/I310S/L436F).
T3 construct: express the Gal4 DBD fused with a variant RXR LBD (GBD:RXR); expressed in transfected cells; host or cells: Saccharomyces cerevisiae PJ69-4A
It is filed as cell-based. The following applies: Yeast, L436F (first line, r10).
Source text: as §1, §2

The target in test [6] is T4, RXR variant I268A; I310S; F313V; L436F (Homo sapiens, UniProt P19793, F313V/I268A/I310S/L436F).
T4 sequence (P19793 225-462 I268A/I310S/F313V/L436F): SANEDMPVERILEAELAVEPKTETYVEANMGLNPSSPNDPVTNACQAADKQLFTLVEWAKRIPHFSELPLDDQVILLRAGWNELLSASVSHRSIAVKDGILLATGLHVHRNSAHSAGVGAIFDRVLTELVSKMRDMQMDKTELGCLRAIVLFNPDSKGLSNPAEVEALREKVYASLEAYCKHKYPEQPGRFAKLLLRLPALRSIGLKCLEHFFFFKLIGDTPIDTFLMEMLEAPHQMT
As to the kind of experiment: cell-based.

The target in test [7] is T5, RXR variant Q275C;I310M;F313I (Homo sapiens, UniProt P19793, F313I/I310M/Q275C).
T5 construct: expressed in transfected cells; host or cells: yeast
The following applies: in yeast; previous best LG335 receptor Q275C;I310M;F313I; cited from earlier work.

The target of a further test is wtRXR (Homo sapiens, UniProt P19793). As to the kind of experiment: cell-based.
Source text: as §3, §4
(§5) Five variants were chosen for testing in mammalian cell culture for comparison of the activation profiles (I268A;I310A;F313A;L436F,I268V;A272V;I310L;F313M, I268A;I310S;F313A;L436F, I268V;A272V;I310M;F313S;L436M, and I286A;I310M;F313A;L436T). The genes for these variants were removed from yeast expression plasmids and ligated into mammalian expression plasmids.

Test [8] addresses RXR variant I268A; I310A; F313A; L436F (Homo sapiens, UniProt P19793, F313A/I268A/I310A/L436F).
Source text: as §3, §4, §5

In test [9] the target is RXR variant I268V; A272V; I310M; F313S; L436M (Homo sapiens, UniProt P19793, A272V/F313S/I268V/I310M/L436M).
Source text: as §3, §4, §5
Target sequence in this assay (P19793 whole entry I268V/A272V/I310M/F313S/L436M): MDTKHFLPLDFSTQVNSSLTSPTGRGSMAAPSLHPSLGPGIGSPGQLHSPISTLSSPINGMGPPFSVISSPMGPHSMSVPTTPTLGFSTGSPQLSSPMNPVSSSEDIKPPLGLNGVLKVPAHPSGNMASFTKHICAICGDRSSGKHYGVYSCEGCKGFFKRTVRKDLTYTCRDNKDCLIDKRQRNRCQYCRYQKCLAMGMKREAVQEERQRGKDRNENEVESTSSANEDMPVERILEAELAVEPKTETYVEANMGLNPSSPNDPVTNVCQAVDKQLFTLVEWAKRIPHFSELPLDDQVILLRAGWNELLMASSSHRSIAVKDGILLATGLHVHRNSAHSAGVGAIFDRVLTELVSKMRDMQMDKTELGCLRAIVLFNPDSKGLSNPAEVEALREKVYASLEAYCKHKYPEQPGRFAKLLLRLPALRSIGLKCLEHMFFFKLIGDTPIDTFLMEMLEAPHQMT

Test [10] concerns the target RXR variant I268V; A272V; I310L; F313M (Homo sapiens, UniProt P19793, A272V/F313M/I268V/I310L).
Source text: as §3, §4, §5
Target sequence in this assay (P19793 whole entry I268V/A272V/I310L/F313M): as the sequence (P19793 whole entry I268V/A272V/I310M/F313S/L436M) above, with M310L, S313M, M436L counted along it

In test [11] the target is RXR variant I268A; I310M; F313A; L436T (Homo sapiens, UniProt P19793, F313A/I268A/I310M/L436T).
Source text: as §3, §4, §5
Target sequence in this assay (P19793 whole entry I268A/I310M/F313A/L436T): as the sequence (P19793 whole entry I268V/A272V/I310M/F313S/L436M) above, with V268A, V272A, S313A, M436T counted along it

Test [12] concerns the target T4, RXR variant I268A; I310S; F313V; L436F. The test can be described thus: cell-based. Also noted: species or system yeast.
Source text: as §1, §2

In test [13] the target is RXR variant I268V; I310V; F313S (Homo sapiens, UniProt P19793, F313S/I268V/I310V). The settings on record: Yeast.
RXR variant I268V; I310V; F313S, sequence (P19793 227-458 I268V/I310V/F313S limits assumed): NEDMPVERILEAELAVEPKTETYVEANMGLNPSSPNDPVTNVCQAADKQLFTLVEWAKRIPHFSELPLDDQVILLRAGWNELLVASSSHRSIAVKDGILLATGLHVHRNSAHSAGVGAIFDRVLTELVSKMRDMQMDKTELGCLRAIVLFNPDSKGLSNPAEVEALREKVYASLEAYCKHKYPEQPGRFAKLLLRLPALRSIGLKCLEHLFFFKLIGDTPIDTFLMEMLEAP
Source text: as §1, §2

For test [14], the target named is RXR variant I268A; I310M; F313A; L436T (Homo sapiens, UniProt P19793, F313A/I268A/I310M/L436T). The settings on record: Yeast.
Source text: as §1, §2

For test [15], the target named is RXR variant I268A; I310A; F313A; L436F (Homo sapiens, UniProt P19793, F313A/I268A/I310A/L436F). The following applies: Yeast, relative to wild type with 10 μM 9cRA.
Source text: as §1, §2

The target of test [16] is RXR variant I268V; A271V; I310L; F313V (Homo sapiens, UniProt P19793, A271V/F313V/I268V/I310L). The following applies: Yeast.
Source text: as §1, §2

The target in test [17] is RXR variant I268L; A271V; I310L; F313L (Homo sapiens, UniProt P19793, A271V/F313L/I268L/I310L). The following applies: Yeast.
Source text: as §1, §2

Test [18] concerns the target RXR variant I268V; A272V; I310M; F313S; L436M (Homo sapiens, UniProt P19793, A272V/F313S/I268V/I310M/L436M). The following applies: Yeast.
Source text: as §1, §2
Target sequence in this assay (P19793 227-458 I268V/A272V/I310M/F313S/L436M limits assumed): as the sequence (P19793 227-458 I268V/I310V/F313S limits assumed) above, with A46V, V84M, L210M counted along it
Target sequence in this assay (Q9Y6Q9 1-1413 partner limits assumed): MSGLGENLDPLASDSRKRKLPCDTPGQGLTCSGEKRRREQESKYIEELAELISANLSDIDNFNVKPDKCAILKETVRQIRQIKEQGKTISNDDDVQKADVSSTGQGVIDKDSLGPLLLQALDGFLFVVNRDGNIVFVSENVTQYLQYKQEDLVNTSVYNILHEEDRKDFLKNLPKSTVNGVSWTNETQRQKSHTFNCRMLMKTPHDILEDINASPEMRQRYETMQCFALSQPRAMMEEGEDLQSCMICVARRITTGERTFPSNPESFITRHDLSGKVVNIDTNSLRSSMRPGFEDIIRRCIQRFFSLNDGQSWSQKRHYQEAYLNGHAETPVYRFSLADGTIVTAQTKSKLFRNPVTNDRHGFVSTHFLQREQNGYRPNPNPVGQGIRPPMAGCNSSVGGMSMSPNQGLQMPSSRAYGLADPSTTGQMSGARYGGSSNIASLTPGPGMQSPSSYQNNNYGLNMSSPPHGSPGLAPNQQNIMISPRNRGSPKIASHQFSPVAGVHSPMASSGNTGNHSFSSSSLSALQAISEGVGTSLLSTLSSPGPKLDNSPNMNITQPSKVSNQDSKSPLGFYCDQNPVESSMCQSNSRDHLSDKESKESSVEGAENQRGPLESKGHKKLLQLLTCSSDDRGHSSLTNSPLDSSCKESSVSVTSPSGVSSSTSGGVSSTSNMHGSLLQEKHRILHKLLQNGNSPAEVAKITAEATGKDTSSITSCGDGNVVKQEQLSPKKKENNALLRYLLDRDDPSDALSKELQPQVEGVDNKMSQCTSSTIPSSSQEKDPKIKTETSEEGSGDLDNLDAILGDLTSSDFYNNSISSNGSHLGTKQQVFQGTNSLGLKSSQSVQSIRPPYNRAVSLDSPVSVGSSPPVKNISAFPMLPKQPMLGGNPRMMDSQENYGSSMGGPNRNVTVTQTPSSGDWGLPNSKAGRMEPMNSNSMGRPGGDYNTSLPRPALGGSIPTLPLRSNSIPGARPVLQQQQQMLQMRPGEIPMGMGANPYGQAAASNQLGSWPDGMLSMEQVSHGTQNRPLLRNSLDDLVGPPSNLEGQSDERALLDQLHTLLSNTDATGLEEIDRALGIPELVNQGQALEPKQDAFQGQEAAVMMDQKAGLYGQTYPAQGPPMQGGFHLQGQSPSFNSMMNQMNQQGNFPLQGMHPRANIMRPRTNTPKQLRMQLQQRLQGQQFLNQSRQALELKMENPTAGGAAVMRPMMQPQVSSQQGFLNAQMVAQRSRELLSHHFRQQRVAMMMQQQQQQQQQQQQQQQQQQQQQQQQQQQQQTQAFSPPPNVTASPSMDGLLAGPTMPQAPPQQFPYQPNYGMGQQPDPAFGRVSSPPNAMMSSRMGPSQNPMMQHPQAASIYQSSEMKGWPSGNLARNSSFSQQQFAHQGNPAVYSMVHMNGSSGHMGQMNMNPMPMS

Test [19] concerns the target T6, RXR variant I268V; A272V; I310L; F313M (Homo sapiens, UniProt P19793, A272V/F313M/I268V/I310L).
T6 sequence (P19793 227-462 I268V/A272V/I310L/F313M): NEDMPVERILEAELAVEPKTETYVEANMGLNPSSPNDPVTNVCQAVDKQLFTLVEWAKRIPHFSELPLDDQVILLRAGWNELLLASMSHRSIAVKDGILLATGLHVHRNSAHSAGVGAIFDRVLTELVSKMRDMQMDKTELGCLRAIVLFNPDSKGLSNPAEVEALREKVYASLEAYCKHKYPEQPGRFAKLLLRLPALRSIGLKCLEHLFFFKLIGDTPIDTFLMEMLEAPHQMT
Source text: as §1, §2
The source holds these as a separate data set.

In test [20] the target is RXR variant I268A; A272V; I310A; F313A; L436F (Homo sapiens, UniProt P19793, A272V/F313A/I268A/I310A/L436F). The settings on record: Yeast.
Source text: as §1, §2

Test [21] concerns the target RXR variant I268L; I310V; F313I (Homo sapiens, UniProt P19793, F313I/I268L/I310V). The following applies: Yeast.
Source text: as §1, §2

Test [22] concerns the target RXR variant I268L; I310M; F313V (Homo sapiens, UniProt P19793, F313V/I268L/I310M).
Source text: as §1, §2

Where [23] appears, read: relative to wild type with 10 μM 9cRA.
Where [24] appears, read: HEK 293, relative to wild type with 10 μM 9cRA.

Like-named read-outs stand apart in the source and are kept apart here.

What is called EC50 is the concentration needed to bring the measured effect to its halfway point.

RXR variant I268L; I310M; F313V, sequence (P19793 227-458 I268L/I310M/F313V limits assumed): as the sequence (P19793 227-458 I268V/I310V/F313S limits assumed) above, with V42L, V84M, S87V counted along it
RXR variant I268L; I310M; F313V, sequence (Q9Y6Q9 1-1413 partner limits assumed): as the sequence (Q9Y6Q9 1-1413 partner limits assumed) above

Turning to `CO/C(=C/C(=O)N(C)C(Cc1ccccc1)c1nccs1)CC(C)C(Cl)(Cl)Cl` (stereo not shown) [Barbamide], the molluscicidal activity entry in test [1] is on record as “potent mollucuscidal activity”.

For `C/C1=C\[C@H](C)C[C@H](C)OC(=O)C[C@H](c2ccc(O)cc2)NC(=O)[C@@H](Cc2c(Br)[nH]c3ccccc23)N(C)C(=O)[C@H](C)NC(=O)[C@@H](C)C1` [Jaspamide], the activity against bacteria result in test [2] was “completely inactive”. Besides, the fungicidal activity result in the test on Candida albicans is “fungicidal activity”. Moreover, the insecticidal activity result with Heliothis virescens is “insecticidal”.

With `CCCc1cc2c(cc1C(=O)c1ccc(C(=O)O)cc1)C(C)(C)CCC2(C)C` [LG335, 4-[(3-Propyl-5,5,8,8-tetramethyl-5,6,7,8-tetrahydro-2-naphtyl)carbonyl]benzoic Acid], the EC50 at wild-type RXR (GBD:RXR) is over 10000 nM; in test [3], 1 nM; in [4], 1 nM; in [5], 470 nM; in test [6] (HEK 293, I268A, I310S, F313V, L436F (second line, r11)), 690 nM; in test [7] it was 1000 nM. The EC50 came out at 300 nM at wtRXR; 30 nM in [8] (HEK 293); 180 nM in [9] (HEK 293); 1 nM in test [10] (HEK 293); 140 nM in [11] (HEK 293); 430 nM in test [12] (Yeast, I268A, I310S, F313V, L436F (second line, r11)). Further, the EC50 in test [13] turned out to be 440 nM; in [14], 610 nM; in test [16], 650 nM; in test [17] it was 530 nM; in [18] it was 680 nM; in [19] (in yeast, I268V;A272V;I310L;F313M), 40 nM. In addition, the EC50 in test [20] was 530 nM; in test [21], over 2000 nM; in test [22] (Yeast, I268L, I310M, F313V), 610 nM. In addition, the “Eff (efficacy)” value on wild-type RXR (GBD:RXR) (Yeast, WT, maximum increase in activation relative to wild type with 10 μM 9cRA) is listed as 10%; in test [5] (setting [23]) it was 60%; on wtRXR (HEK 293, WT, relative to wild type with 10 μM 9cRA) it was 10%; in test [8] (setting [24]), 50%; in [9] (setting [24]), 30%; in test [10] (setting [24]), 30%. Also, the “Eff (efficacy)” value in test [11] (setting [24]) turned out to be 20%; in test [13] (setting [23]) it was 10%; in test [14] (setting [23]), 10%; in test [15], 70%; in [16] (setting [23]), 10%; in test [17] (setting [23]), 20%. In addition, the “Eff (efficacy)” value came to 30% in [18] (setting [23]); 60% in test [19] (Yeast, I268V, A272V, I310L, F313M, relative to wild type with 10 μM 9cRA); 30% in [20] (setting [23]); 10% in test [21] (setting [23]); 20% in [22] (Yeast, I268L, I310M, F313V, relative to wild type with 10 μM 9cRA). Moreover, the Emax in [6] (HEK293, read-out: Eff (efficacy)) is 20%; in test [12] (read-out: Eff (efficacy)), 50%. For the same molecule, in [19] (in yeast, LG335-I268V;A272V;I310L;F313M ligand receptor pair), the “improvement in EC50 over the previous best LG335 receptor, Q275C;I310M;F313I” value came to 25 fold. In [22] (I268L;I310M;F313V, high basal activity), the “activity in the screen assay” value was “increase activity at micromolar concentrations”.

The values above are taken from US8492088B2, “Engineering enzymes through genetic selection” (priority 2007, dated 2013).
